Experimental data from ChEMBL document CHEMBL5291721, “A preclinical secondary pharmacology resource illuminates target-adverse drug reaction associations of marketed drugs” (Nat Commun, 2023).

Tests used:
[1] = molecular target: T1, Neuropeptide Y receptor type 1 (Homo sapiens, UniProt P25929)
T1 sequence (P25929 whole entry): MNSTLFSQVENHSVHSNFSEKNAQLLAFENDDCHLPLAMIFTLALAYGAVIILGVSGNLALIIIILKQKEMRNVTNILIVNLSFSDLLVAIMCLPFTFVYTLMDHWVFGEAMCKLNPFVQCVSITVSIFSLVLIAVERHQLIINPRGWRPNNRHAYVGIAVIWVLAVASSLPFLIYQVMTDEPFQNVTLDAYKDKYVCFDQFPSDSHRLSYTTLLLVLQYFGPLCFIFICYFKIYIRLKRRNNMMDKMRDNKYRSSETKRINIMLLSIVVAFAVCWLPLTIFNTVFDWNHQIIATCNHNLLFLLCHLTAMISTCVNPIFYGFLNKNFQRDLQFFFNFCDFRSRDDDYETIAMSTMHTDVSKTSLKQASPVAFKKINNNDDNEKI

[2] = molecular target: T2, Prostaglandin G/H synthase 1 (Rattus norvegicus, UniProt Q63921); type: functional
T2 sequence (Q63921 whole entry): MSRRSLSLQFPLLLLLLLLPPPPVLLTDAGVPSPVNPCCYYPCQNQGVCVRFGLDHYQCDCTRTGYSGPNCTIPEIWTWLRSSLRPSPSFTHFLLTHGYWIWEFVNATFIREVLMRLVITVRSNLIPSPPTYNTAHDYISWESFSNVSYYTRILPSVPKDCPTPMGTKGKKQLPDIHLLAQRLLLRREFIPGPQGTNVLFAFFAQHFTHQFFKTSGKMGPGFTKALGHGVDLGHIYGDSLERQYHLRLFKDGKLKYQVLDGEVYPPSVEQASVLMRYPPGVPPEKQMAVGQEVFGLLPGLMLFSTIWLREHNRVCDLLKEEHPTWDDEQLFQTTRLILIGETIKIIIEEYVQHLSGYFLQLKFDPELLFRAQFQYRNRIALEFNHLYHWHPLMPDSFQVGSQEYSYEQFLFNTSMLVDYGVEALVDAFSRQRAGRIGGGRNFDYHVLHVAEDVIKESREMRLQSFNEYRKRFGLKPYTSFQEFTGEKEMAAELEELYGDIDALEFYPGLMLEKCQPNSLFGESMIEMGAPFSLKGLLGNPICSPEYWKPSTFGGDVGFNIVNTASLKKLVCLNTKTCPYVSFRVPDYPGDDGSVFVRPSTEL

[3] = molecular target: Voltage-gated inwardly rectifying potassium channel KCNH2 (Homo sapiens, UniProt Q12809); type: functional; settings: read-out: AC50
Chain of Voltage-gated inwardly rectifying potassium channel KCNH2 (Q12809 whole entry): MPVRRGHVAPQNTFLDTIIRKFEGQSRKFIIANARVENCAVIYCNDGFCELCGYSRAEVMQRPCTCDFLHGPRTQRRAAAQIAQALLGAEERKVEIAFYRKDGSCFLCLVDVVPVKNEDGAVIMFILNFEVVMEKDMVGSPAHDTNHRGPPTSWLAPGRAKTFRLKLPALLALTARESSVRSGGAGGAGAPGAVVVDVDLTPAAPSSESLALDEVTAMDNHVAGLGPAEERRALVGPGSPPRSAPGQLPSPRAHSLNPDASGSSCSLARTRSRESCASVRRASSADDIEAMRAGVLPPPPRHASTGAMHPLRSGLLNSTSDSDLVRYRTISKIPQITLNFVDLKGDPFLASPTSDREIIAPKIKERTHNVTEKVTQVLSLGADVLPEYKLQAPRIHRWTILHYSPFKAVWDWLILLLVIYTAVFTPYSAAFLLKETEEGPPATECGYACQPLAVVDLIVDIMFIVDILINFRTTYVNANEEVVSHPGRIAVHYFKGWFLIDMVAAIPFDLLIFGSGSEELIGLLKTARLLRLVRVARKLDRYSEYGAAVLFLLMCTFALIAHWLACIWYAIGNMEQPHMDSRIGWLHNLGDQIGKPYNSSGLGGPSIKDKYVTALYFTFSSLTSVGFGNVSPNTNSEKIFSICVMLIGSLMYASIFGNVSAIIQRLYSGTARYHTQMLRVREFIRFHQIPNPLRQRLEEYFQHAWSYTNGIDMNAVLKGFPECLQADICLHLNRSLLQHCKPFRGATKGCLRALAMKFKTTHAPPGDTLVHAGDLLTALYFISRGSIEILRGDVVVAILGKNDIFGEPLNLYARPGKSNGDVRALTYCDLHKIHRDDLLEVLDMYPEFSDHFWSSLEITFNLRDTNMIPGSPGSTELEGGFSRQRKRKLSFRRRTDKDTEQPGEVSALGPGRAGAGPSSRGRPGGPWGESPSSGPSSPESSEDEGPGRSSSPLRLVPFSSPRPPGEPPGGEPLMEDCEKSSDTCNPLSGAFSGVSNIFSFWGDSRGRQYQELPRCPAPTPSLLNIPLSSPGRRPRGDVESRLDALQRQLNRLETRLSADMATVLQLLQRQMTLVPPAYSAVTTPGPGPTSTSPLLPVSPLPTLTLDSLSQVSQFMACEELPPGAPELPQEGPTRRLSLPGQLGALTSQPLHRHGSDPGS

[4] = molecular target: Glutamate receptor ionotropic, NMDA 1 (Rattus norvegicus, UniProt P35439)
Adenosine receptor A2a = Adenosine receptor A2a (Homo sapiens, UniProt P29274)
Chain of Adenosine receptor A2a (P29274 whole entry): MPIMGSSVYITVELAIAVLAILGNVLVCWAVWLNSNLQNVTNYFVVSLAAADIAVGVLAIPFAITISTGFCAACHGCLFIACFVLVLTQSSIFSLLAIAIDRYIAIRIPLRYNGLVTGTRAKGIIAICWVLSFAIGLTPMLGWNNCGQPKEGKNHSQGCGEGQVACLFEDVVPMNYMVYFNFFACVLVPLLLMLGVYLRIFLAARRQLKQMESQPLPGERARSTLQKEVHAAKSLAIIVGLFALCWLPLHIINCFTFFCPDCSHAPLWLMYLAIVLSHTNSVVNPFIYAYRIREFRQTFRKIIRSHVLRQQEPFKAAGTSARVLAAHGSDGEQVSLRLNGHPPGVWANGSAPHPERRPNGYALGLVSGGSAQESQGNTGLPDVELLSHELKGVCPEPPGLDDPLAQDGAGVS

[5] = molecular target: Gamma-aminobutyric acid receptor subunit alpha-1 (Rattus norvegicus, UniProt P62813)
Chain of Gamma-aminobutyric acid receptor subunit alpha-1 (P62813 whole entry): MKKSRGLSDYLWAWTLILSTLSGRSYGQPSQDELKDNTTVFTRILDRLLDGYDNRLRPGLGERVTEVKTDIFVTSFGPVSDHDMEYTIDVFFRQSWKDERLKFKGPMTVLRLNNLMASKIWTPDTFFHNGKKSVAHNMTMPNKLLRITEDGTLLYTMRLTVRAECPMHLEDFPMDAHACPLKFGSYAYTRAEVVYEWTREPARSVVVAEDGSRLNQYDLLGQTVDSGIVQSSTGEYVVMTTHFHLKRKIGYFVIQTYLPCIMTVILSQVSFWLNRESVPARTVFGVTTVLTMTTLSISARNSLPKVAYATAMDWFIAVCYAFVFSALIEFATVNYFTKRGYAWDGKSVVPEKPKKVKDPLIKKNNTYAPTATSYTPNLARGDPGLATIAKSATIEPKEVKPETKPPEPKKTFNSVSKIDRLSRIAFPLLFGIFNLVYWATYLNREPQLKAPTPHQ

Vasopressin V1a receptor = Vasopressin V1a receptor (Homo sapiens, UniProt P37288)
Chain of Vasopressin V1a receptor (P37288 whole entry): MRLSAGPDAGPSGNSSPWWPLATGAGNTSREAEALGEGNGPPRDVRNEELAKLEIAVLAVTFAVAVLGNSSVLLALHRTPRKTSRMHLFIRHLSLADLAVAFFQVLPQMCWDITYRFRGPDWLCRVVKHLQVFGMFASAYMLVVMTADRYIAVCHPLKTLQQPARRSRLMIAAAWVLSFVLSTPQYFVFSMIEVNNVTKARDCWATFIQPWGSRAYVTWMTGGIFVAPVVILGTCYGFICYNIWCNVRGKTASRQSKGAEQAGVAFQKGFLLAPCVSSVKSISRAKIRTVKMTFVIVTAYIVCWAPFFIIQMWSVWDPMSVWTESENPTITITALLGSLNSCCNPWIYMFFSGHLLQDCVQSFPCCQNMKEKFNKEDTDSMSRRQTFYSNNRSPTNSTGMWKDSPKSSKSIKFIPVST

[6] = molecular target: Beta-2 adrenergic receptor (Homo sapiens, UniProt P07550); type: functional, cell-based
Chain of Beta-2 adrenergic receptor (P07550 whole entry): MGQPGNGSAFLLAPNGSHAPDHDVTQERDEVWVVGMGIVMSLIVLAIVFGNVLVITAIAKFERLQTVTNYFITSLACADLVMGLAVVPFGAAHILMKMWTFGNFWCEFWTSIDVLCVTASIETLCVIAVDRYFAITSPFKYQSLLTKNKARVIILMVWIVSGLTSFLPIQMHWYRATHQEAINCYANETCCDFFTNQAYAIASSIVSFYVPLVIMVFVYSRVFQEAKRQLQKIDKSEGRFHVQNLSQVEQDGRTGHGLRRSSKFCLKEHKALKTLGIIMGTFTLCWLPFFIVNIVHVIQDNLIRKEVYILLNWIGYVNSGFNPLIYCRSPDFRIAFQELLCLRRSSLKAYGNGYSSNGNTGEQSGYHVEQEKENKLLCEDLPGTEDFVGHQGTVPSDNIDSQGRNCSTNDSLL

[7] = molecular target: T3, Alpha-2C adrenergic receptor (Homo sapiens, UniProt P18825); type: functional
T3 sequence (P18825 whole entry): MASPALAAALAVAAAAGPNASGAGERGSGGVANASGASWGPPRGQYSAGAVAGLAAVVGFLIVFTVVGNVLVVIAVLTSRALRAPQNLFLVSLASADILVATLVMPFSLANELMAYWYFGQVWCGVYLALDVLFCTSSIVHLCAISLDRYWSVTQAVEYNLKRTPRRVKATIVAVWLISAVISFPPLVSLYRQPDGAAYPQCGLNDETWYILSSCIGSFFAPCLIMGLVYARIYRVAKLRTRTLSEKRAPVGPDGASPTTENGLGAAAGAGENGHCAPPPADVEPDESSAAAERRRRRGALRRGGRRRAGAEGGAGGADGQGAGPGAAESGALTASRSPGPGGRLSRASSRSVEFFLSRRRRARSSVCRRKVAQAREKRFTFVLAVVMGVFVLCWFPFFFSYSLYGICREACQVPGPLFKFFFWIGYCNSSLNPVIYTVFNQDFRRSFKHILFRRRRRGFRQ

Histamine H3 receptor = Histamine H3 receptor (Homo sapiens, UniProt Q9Y5N1)
Chain of Histamine H3 receptor (Q9Y5N1 whole entry): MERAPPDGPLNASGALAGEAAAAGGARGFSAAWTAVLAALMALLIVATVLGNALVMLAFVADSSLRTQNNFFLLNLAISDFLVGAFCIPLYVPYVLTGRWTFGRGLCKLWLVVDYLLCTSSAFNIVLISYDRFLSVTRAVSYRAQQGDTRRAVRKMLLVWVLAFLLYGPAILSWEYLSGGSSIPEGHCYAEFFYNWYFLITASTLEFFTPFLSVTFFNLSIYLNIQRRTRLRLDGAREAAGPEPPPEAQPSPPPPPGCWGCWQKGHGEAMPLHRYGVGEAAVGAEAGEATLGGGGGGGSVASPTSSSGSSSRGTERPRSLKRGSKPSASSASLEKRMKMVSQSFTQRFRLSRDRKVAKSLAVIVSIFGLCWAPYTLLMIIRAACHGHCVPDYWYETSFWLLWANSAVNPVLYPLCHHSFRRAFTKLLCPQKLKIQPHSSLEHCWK

[8] = molecular target: T4, Muscarinic acetylcholine receptor M2 (Homo sapiens, UniProt P08172)
T4 sequence (P08172 whole entry): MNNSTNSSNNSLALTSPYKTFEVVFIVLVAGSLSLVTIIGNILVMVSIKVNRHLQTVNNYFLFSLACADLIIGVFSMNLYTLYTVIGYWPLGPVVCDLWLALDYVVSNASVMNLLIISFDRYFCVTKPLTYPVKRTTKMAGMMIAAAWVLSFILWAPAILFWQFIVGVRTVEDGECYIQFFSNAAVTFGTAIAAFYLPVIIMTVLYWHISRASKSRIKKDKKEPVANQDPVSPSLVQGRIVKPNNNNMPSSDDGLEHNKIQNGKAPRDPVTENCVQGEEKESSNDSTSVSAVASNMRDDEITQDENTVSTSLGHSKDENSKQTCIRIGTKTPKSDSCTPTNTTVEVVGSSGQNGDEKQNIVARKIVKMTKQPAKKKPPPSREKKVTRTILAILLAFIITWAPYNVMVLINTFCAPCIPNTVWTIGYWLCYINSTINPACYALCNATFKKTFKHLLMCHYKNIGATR

Estrogen receptor = molecular target: T5, Estrogen receptor (Homo sapiens, UniProt P03372)
T5 sequence (P03372 whole entry): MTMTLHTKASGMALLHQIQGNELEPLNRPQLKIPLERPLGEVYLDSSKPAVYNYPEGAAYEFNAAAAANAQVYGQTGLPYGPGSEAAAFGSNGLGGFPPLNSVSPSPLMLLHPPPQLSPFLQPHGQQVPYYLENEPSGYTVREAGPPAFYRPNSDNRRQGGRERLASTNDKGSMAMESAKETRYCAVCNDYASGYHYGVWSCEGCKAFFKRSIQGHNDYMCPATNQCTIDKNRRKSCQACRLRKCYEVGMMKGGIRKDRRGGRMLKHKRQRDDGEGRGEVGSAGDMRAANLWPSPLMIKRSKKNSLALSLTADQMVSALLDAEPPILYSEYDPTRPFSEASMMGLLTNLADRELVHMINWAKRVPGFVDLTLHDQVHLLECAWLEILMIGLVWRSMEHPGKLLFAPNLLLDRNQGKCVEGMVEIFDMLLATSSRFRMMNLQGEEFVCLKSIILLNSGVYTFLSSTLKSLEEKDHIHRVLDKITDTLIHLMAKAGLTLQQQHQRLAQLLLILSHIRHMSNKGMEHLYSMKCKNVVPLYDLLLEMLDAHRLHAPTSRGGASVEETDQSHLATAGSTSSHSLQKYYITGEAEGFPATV
Further: assay procedure not described here.

SMILES	AC50 [1]	AC50 [2]	AC50 [3]	AC50 [4]	AC50 (Adenosine receptor A2a)	AC50 [5]	AC50 (Vasopressin V1a receptor)	AC50 [6]	AC50 [7]	AC50 (Histamine H3 receptor)	AC50 [8]	AC50 (Estrogen receptor)
COC(=O)[C@H](c1ccccc1Cl)N1CCc2sccc2C1 [CLOPIDOGREL]	> 30 µM	> 30 µM	26.1 µM	> 30 µM	> 30 µM	> 30 µM	> 30 µM	> 30 µM	> 30 µM	–	–	–
C#Cc1cccc(Nc2ncnc3cc(OCCOC)c(OCCOC)cc23)c1 [ERLOTINIB]	–	> 30 µM	> 30 µM	–	18 µM	–	> 30 µM	> 30 µM	> 30 µM	> 30 µM	13.2 µM	> 30 µM
CCC(=O)O[C@@H](O[P@](=O)(CCCCc1ccccc1)CC(=O)N1C[C@H](C2CCCCC2)C[C@H]1C(=O)O)C(C)C [FOSINOPRIL]	–	–	> 30 µM	> 30 µM	–	> 30 µM	–	> 30 µM	> 30 µM	> 30 µM	> 30 µM	> 30 µM
Cc1cnc(NC(=O)C2=C(O)c3ccccc3S(=O)(=O)N2C)s1 [MELOXICAM]	> 30 µM	> 30 µM	> 30 µM	> 10 µM	> 30 µM	> 10 µM	> 10 µM	> 30 µM	> 10 µM	–	–	–
CC[C@@H](CO)NC(=O)[C@@H]1C=C2c3cccc4[nH]cc(c34)C[C@H]2N(C)C1 [METHYLERGONOVINE]	> 30 µM	> 30 µM	> 30 µM	> 30 µM	> 30 µM	> 30 µM	> 30 µM	> 30 µM	1.7 µM	–	–	–
CN(C)c1cc(CNCC(C)(C)C)c(O)c2c1C[C@H]1C[C@H]3[C@H](N(C)C)C(O)=C(C(N)=O)C(=O)[C@@]3(O)C(O)=C1C2=O [OMADACYCLINE]	> 30 µM	0.645 µM	> 30 µM	> 30 µM	> 30 µM	> 30 µM	> 30 µM	> 30 µM	> 30 µM	> 30 µM	9.2 µM	> 30 µM
COc1ccnc(C[S+]([O-])c2nc3ccc(OC(F)F)cc3[nH]2)c1OC (stereo unspecified) [PANTOPRAZOLE]	> 30 µM	> 30 µM	> 30 µM	> 10 µM	> 30 µM	> 10 µM	> 10 µM	> 30 µM	> 10 µM	–	–	–
CC(C)C[C@H](CN)CC(=O)O [PREGABALIN]	> 30 µM	> 30 µM	> 30 µM	> 30 µM	> 30 µM	> 30 µM	> 30 µM	> 30 µM	> 30 µM	–	–	–
CNC(=O)c1cc(Oc2ccc(NC(=O)Nc3ccc(Cl)c(C(F)(F)F)c3)c(F)c2)ccn1 [REGORAFENIB]	–	> 30 µM	> 10 µM	–	> 30 µM	–	–	> 30 µM	> 30 µM	> 30 µM	> 30 µM	> 30 µM
CC(C)N(CCCCOCC(=O)NS(C)(=O)=O)c1cnc(-c2ccccc2)c(-c2ccccc2)n1 [SELEXIPAG]	> 30 µM	> 30 µM	> 30 µM	> 30 µM	> 30 µM	> 30 µM	> 30 µM	> 30 µM	> 30 µM	–	–	–
CC(=O)S[C@@H]1CC2=CC(=O)CC[C@]2(C)[C@H]2CC[C@@]3(C)[C@@H](CC[C@@]34CCC(=O)O4)[C@H]12 [SPIRONOLACTONE]	> 30 µM	> 30 µM	> 30 µM	> 10 µM	> 30 µM	> 10 µM	> 30 µM	> 30 µM	> 30 µM	–	–	–
Cn1c(=O)c2[nH]cnc2n(C)c1=O [THEOPHYLLINE]	> 30 µM	> 30 µM	> 30 µM	> 10 µM	–	> 10 µM	> 30 µM	> 30 µM	> 10 µM	> 30 µM	> 30 µM	–
CN1CCN(CCCN2c3ccccc3Sc3ccc(S(=O)(=O)N(C)C)cc32)CC1 [THIOPROPERAZINE]	–	–	0.4 µM	> 10 µM	–	> 30 µM	–	> 30 µM	2.6 µM	13.7 µM	2.66 µM	–
Cc1cc(CC(=O)O)n(C)c1C(=O)c1ccc(Cl)cc1 [ZOMEPIRAC]	> 30 µM	16 µM	> 30 µM	> 30 µM	> 30 µM	> 30 µM	> 30 µM	> 30 µM	> 30 µM	–	–	–
